Data as given in PMC3904506 (International journal of biological macromolecules, 2013).
Counter-ions that a name gives are not always drawn. Like-named read-outs stand apart in the source and are kept apart here. Blank lines part the entries; values can stand above or below the compound they belong to.

Columns and labels:
CDA variant K27/A70 [1] = biological target: T1, CDA variant K27/A70 (Homo sapiens, UniProt P32320); assay: CDA activity assay, substrate kinetics, K27/A70 variant
CDA variant Q27/A70 [2] = biological target: T2, CDA variant Q27/A70 (Homo sapiens, UniProt P32320, K27Q); assay: CDA activity assay, substrate kinetics, Q27/A70 variant; conditions: 37 °C
T2 sequence (P32320 whole entry K27Q): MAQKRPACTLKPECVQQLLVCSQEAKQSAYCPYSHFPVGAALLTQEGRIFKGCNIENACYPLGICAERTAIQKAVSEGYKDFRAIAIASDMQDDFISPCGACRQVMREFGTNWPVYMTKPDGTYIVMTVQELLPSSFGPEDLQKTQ

CDA mutant E24Q [3] = biological target: T3, CDA mutant E24Q (Homo sapiens, UniProt P32320, E24Q); assay: CDA activity assay, substrate kinetics, E24Q mutant; conditions: 37 °C
T3 sequence (P32320 whole entry E24Q): as the sequence (P32320 whole entry K27Q) above, with E24Q, Q27K counted along it

CDA variant K27/T70 [4] = biological target: T4, CDA variant K27/T70 (Homo sapiens, UniProt P32320, A70T); assay: CDA activity assay, substrate kinetics, K27/T70 variant; conditions: 37 °C
T4 sequence (P32320 whole entry A70T): as the sequence (P32320 whole entry K27Q) above, with Q27K, A70T counted along it

CDA variant K27/T70 [5] = biological target: T4, CDA variant K27/T70; assay: Inhibition of deoxycytidine deamination, K27/T70 variant
CDA mutant E24Q [6] = biological target: T3, CDA mutant E24Q; assay: Inhibition of deoxycytidine deamination, E24Q mutant
CDA variant Q27/A70 [7] = biological target: T2, CDA variant Q27/A70; assay: Inhibition of deoxycytidine deamination, Q27/A70 variant
CDA mutant E24Q [8] = biological target: T3, CDA mutant E24Q; assay: Oxidative resistance experiments, E24Q mutant; assay type: biochemical
CDA variant K27/A70 [9] = biological target: T1, CDA variant K27/A70; assay: Oxidative resistance experiments, K27/A70 variant; assay type: biochemical
CDA variant Q27/A70 [10] = biological target: T2, CDA variant Q27/A70; assay: Oxidative resistance experiments, Q27/A70 variant; assay type: biochemical
CDA variant K27/T70 [11] = biological target: T4, CDA variant K27/T70; assay: Oxidative resistance experiments, K27/T70 variant; assay type: biochemical
CDA variant K27/A70 [12] = biological target: T1, CDA variant K27/A70; assay: Inhibition of deoxycytidine deamination, K27/A70 variant; conditions: double-reciprocal plots, substrate deoxycytidine
[13] = read-out: K0.5 (concentration at 50% inhibition of activity), NaOCl
[14] = 100 μM NaOCl, 60 min of incubation, 37 °C
[15] = K27/T70, double-reciprocal plots, substrate deoxycytidine
[16] = Q27/A70, double-reciprocal plots, substrate deoxycytidine

SMILES: Nc1ccn([C@H]2CC[C@@H](CO)O2)c(=O)n1 [2′,3′-CdR, 2′,3′-dideoxycytidine]
Km (CDA variant K27/A70 [1]; 37 °C): not substrate | Km (CDA variant Q27/A70 [2]): not substrate | Km (CDA mutant E24Q [3]): not substrate | Km (CDA variant K27/T70 [4]): not substrate

SMILES: Nc1ccn([C@H]2C[C@H](O)[C@@H](CO)O2)c(=O)n1 [CdR, 2′-deoxycytidine]
enthalpy of binding ΔH (van't Hoff plot) (CDA variant K27/A70 [1]; temperature range 10–35 °C): 3.57 kcal/mol | enthalpy of binding ΔH (van't Hoff plot) (CDA variant K27/A70 [1]; temperature range 35–80 °C): -8.88 kcal/mol

SMILES: OO [H2O2, hydrogen peroxide]
IC50 (CDA mutant E24Q [8]; read-out: K0.5, H2O2): 8000 µM | IC50 (CDA variant K27/A70 [9]; read-out: K0.5, H2O2): 23500 µM | IC50 (CDA variant Q27/A70 [10]; read-out: K0.5, H2O2): 15000 µM | IC50 (CDA variant K27/T70 [11]; read-out: K0.5, H2O2): 11500 µM

SMILES: [Na+].[O-]Cl [NaOCl, sodium hypochlorite]
residual activity (CDA mutant E24Q [8]; NaOCl (100 μM, Fig. 6A), 60 min of incubation): 97% | IC50 (CDA mutant E24Q [8]; [13]): 1000 µM | residual activity (CDA variant K27/A70 [9]; [14]): 32% | IC50 (CDA variant K27/A70 [9]; [13]): 60 µM | residual activity (CDA variant Q27/A70 [10]; [14]): 49% | IC50 (CDA variant Q27/A70 [10]; [13]): 100 µM | residual activity (CDA variant K27/T70 [11]; [14]): 27.5%

SMILES: O=C1NC(O)CCN1[C@H]1C[C@H](O)[C@@H](CO)O1 (stereo partly drawn) [Tetrahydro-2′-deoxyuridine]
Ki (CDA variant K27/T70 [5]; [15]): 0.26 µM | Ki (CDA variant K27/A70 [12]): 0.04 µM | Ki (CDA variant Q27/A70 [7]; [16]): 0.26 µM

Second part, the compound after the results:

Ki (CDA variant K27/T70 [5]): 2.4 µM | Ki (CDA mutant E24Q [6]): 2.9 µM | Ki (CDA variant Q27/A70 [7]): 1.8 µM
SMILES: Nc1ccn([C@@H]2O[C@H](CO)[C@@H](O)[C@H]2O)c(=O)c1 [3-Deaza-cytidine]

increase in catalytic efficiency with respect to the Q27/A70 and K27/T70 variants (CDA variant K27/A70 [1]): 3 fold
SMILES: Nc1ncn([C@@H]2O[C@H](CO)[C@@H](O)[C@@H]2O)c(=O)n1 [Fazarabine, 1-β-D-arabinofuranosyl-5-azacytosine]

Ki (CDA variant K27/T70 [5]; [15]): 60 µM | Ki (CDA variant K27/A70 [12]): 28 µM | Ki (CDA variant Q27/A70 [7]; [16]): 46 µM
SMILES: Nc1ncc([C@@H]2O[C@H](CO)[C@@H](O)[C@H]2O)c(=O)[nH]1 [Pseudoisocytidine-HCl]
